According to PubChem BioAssay (NCI):
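A five-concentration, 48-hour dose response in 96-well plates underlies each endpoint, interpolated linearly between surrounding concentrations. GI50 = concentration required for 50% inhibition of growth. TGI is the concentration that stops growth completely.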

What was measured:
Assay in all cases: growth of human tumour cells (NCI), 48 h
PC-3 prostate = tested on: PC-3 prostate
SNB-78 CNS = tested on: SNB-78 CNS
RXF-631 renal = tested on: RXF-631 renal
M19-MEL melanoma = tested on: M19-MEL melanoma
XF 498 CNS = tested on: XF 498 CNS
DLD-1 colon = tested on: DLD-1 colon
HOP-18 NSCLC = tested on: HOP-18 NSCLC
DMS 273 small cell lung = tested on: DMS 273 small cell lung
MDA-N = tested on: MDA-N

| SMILES | GI50 (PC-3 prostate) | TGI (PC-3 prostate) | TGI (SNB-78 CNS) | TGI (M19-MEL melanoma) | TGI (XF 498 CNS) | TGI (DLD-1 colon) | TGI (DMS 273 small cell lung) | further results |
| --- | --- | --- | --- | --- | --- | --- | --- | --- |
| C[C@@H]1O[C@@H](O[C@H]2C[C@@H](O)[C@]3(CO)C4C(CC[C@]3(O)C2)[C@@]2(O)CC[C@H](C3=CC(=O)OC3)[C@@]2(C)C[C@H]4O)[C@H](O)[C@H](O)[C@H]1O (stereo not given in full) | 0.0214 µM | 0.113 µM |  |  |  |  |  |  |
| CCc1nc2c(O)ccc(O)c2nc1C |  |  | 62.6 µM | 19.4 µM | 39.4 µM | 9.35 µM | 37 µM | TGI (RXF-631 renal): 34.3 µM; TGI (HOP-18 NSCLC): 35.3 µM |
| O=C1Nc2ccc(F)c3c(OCCO)cc(-c4ccc[nH]4)c1c23 | 1.32 µM | 10.3 µM |  |  |  |  |  |  |
| C[C@]12CC[C@H](O)CC1=CC[C@@H]1[C@@H]2CC[C@]2(C)C(=O)/C(=C/c3cccc(OCCCn4ccnc4)c3)C[C@@H]12 | 15.6 µM | 39.8 µM |  |  |  |  |  |  |
| COC1=CC(c2ccc[nH]2)=N/C1=C\c1[nH]c(C)c(C(=O)CCC(=O)Oc2ccc3c(c2)CCC2C3CC[C@]3(C)C(=O)CC[C@@H]23)c1C (stereo not given in full) | 6.52 µM | > 100 µM |  |  |  |  |  |  |
| COCCNCC(O)Cn1c2ccc(Cl)cc2c2cc(Cl)ccc21 (stereo not given) | 1.75 µM | 3.81 µM |  |  |  |  |  |  |
| COc1ccc(C2C3=C(NC(=O)C2C#N)c2ccc4ccccc4c2OCC3)cc1 (stereo not given) | 86.9 µM | > 100 µM |  |  |  |  |  |  |
| CCOC(C)OCC#CCCBr (stereo not given) |  |  | > 100 µM | > 100 µM |  | > 100 µM | > 100 µM | TGI (HOP-18 NSCLC): > 100 µM |
| COc1ccc(-c2cc3cccc(OC)c3c(=O)o2)cc1OC | 55.9 µM | > 100 µM |  |  |  |  |  |  |
| O=C(CC12CC3CC(CC(C3)C1)C2)NCCOCCOCCNC(=O)c1cc2c(o1)C(=O)c1ccccc1C2=O | 1.38 µM | 9.21 µM |  |  |  |  |  |  |
| O=C1CCC2(c3ccc(F)cc3)Nc3ccccc3N12 (stereo not given) |  |  | > 100 µM | > 100 µM | > 100 µM | > 100 µM |  | TGI (RXF-631 renal): > 100 µM |
| COc1ccc2c(c1)O/C(=C\c1cccc(OCC(=O)Nc3nc4ccccc4s3)c1)C2=O | 8.46 µM | > 100 µM |  |  |  |  |  |  |
| CS(=O)(=O)c1nccc(-c2c(-c3cccc(OCc4ccc(F)cc4)c3)nc3sccn23)n1 | 4.62 µM | > 28 µM |  |  |  |  |  |  |
| COc1ccc(/C=C2/CN(C(=O)c3ccccc3F)C/C(=C\c3ccc(OC)cc3)C2=O)cc1 | 2.57 µM | 8.87 µM |  |  |  |  |  |  |
| O=[N+]([O-])c1ccccc1S(=O)c1ccccc1 (stereo not given) |  |  | > 100 µM | > 100 µM | > 100 µM | > 100 µM | > 100 µM |  |
| N#C/C(=C\c1ccc(CP(=O)(O)O)cc1)C(N)=O |  |  |  | > 100 µM | > 100 µM | > 100 µM | > 100 µM | TGI (HOP-18 NSCLC): > 100 µM |

| SMILES | GI50 (PC-3 prostate) | TGI (PC-3 prostate) | TGI (SNB-78 CNS) | TGI (M19-MEL melanoma) | TGI (XF 498 CNS) | TGI (DLD-1 colon) | TGI (DMS 273 small cell lung) | further results |
| --- | --- | --- | --- | --- | --- | --- | --- | --- |
| C=C1C(=O)O[C@@H]2C[C@]3(C)[C@@H](C[C@H]12)[C@](C)(O)CC[C@@H]3O |  |  | > 100 µM | > 100 µM | > 100 µM | > 100 µM | > 100 µM | TGI (RXF-631 renal): > 100 µM |
| O=C(NO)c1ccc(C(=O)NO)cc1 |  | > 100 µM |  |  |  |  |  | TGI (MDA-N): > 100 µM |
| O=CC1=CCCC2(C1)OCCO2 |  |  | > 100 µM | > 100 µM | > 100 µM | > 100 µM | > 100 µM | TGI (RXF-631 renal): > 100 µM |
| Cc1c(/C=C2\CC/C(=C\c3[nH]c(C(=O)OC(C)(C)C)c(C)c3C)C2=O)[nH]c(C(=O)OC(C)(C)C)c1C |  |  | > 100 µM | > 100 µM | > 100 µM | > 100 µM | > 100 µM | TGI (HOP-18 NSCLC): > 100 µM |
| CC(=O)O[C@]1(C(C)=O)CC[C@H]2[C@@H]3C[C@H](C)C4=CC(=O)C=C[C@]4(C)[C@@]3(F)[C@@H](O)C[C@@]21C |  |  | > 100 µM | > 100 µM | > 100 µM | > 100 µM | > 100 µM |  |
| OCC(O)CC[CH2][Sn]([c]1ccccc1)([c]1ccccc1)[c]1ccccc1 (stereo not given) |  |  | 41.3 µM | 31.1 µM | 35.9 µM | 32 µM | 29.6 µM | GI50 (SNB-78 CNS): 19.6 µM; GI50 (RXF-631 renal): 13.6 µM; TGI (RXF-631 renal): 28.7 µM; GI50 (M19-MEL melanoma): 17.1 µM; GI50 (XF 498 CNS): 19.5 µM; GI50 (DLD-1 colon): 16.5 µM; GI50 (HOP-18 NSCLC): 24.9 µM; TGI (HOP-18 NSCLC): 39.7 µM; GI50 (DMS 273 small cell lung): 14.3 µM |
| COc1cc2c(cc1OC)C1c3ccccc3C(C#N)(C2)N(C(=O)c2ccccc2)C1O (stereo not given) |  |  | > 100 µM | > 100 µM | 95.9 µM | > 100 µM | > 100 µM | TGI (RXF-631 renal): > 100 µM; TGI (HOP-18 NSCLC): > 100 µM |
| O=c1/c(=C/c2cccc3ccccc23)sc2nc3ccccc3n12 |  |  | > 100 µM | > 100 µM |  | > 100 µM | > 100 µM | TGI (RXF-631 renal): > 100 µM; TGI (HOP-18 NSCLC): > 100 µM |
| [Cu+2].[Cu+2].[O-]c1ccccc1C=Nc1ccccc1[O-].[O-]c1ccccc1C=Nc1ccccc1[O-] |  |  | 36.4 µM | 3.69 µM | 7.16 µM | 16.6 µM | 13.6 µM | GI50 (SNB-78 CNS): 13.5 µM; GI50 (M19-MEL melanoma): 1.86 µM; GI50 (XF 498 CNS): 2.67 µM; GI50 (DLD-1 colon): 3.95 µM; GI50 (HOP-18 NSCLC): 2.99 µM; TGI (HOP-18 NSCLC): 16.6 µM; GI50 (DMS 273 small cell lung): 2.54 µM |
| COc1ccc2c(c1)Oc1nc(N)c(C#N)c(N)c1C2Sc1ccc(SC)cc1 (stereo not given) | 1.77 µM | 3.27 µM |  |  |  |  |  |  |
| Cc1oc2ccccc2c(=O)c1Cn1nnc2ccccc21 |  | > 100 µM |  |  |  |  |  | TGI (MDA-N): > 100 µM |
| O=S(=O)(c1cccc(C(F)(F)F)c1)N1c2ccccc2-n2cccc2C1c1cccnc1 (stereo not given) |  | > 52.6 µM |  |  |  |  |  | TGI (MDA-N): > 100 µM |
| COc1cc(OC)c(-c2cc(=O)c3c(OC)c(OC)c(OC)c(OC)c3o2)cc1OC |  | > 100 µM |  |  |  |  |  | TGI (MDA-N): > 100 µM |
| O=C1C=C(SCCO)C(=O)c2ccccc21 | 2.45 µM | 8.89 µM |  |  |  |  |  |  |
| O=C(NNc1nc2cc(F)ccc2n2c(CN3CCOCC3)ccc12)c1ccccc1 | 0.339 µM | 3.05 µM |  |  |  |  |  |  |
